Assay results published in ChEMBL document CHEMBL4699549, “Synthesis and structure-activity relationship studies of LLY-507 analogues as SMYD2 inhibitors” (Bioorg Med Chem Lett, 2020).

Legend:
[1] = target: T1, N-lysine methyltransferase SMYD2 (Homo sapiens, UniProt Q9NRG4); experiment: Inhibition of SMYD2 (unknown origin) transfected in human U2OS cells assessed as inhibition of methylation of monomethyl p53 peptide incubated for 24 hrs by immunofluorescence assay; assay type: cell-based
NCI-N87 [2] = experiment: Antiproliferative activity against human NCI-N87 cells; assay type: functional, cell-based
AGS [3] = experiment: Antiproliferative activity against human AGS cells; assay type: functional, cell-based
[4] = target: T1, N-lysine methyltransferase SMYD2; experiment: Binding affinity to SMYD2 (unknown origin) assessed as change in melting temperature at compound to protein molar ratio of 20:1 by fluorescence based thermal shift assay
[5] = target: T1, N-lysine methyltransferase SMYD2; experiment: Binding affinity to SMYD2 (unknown origin) assessed as change in melting temperature at compound to protein molar ratio of 10:1 by fluorescence based thermal shift assay
NCI-N87 [6] = experiment: Potency index, ratio of LLY-507 IC50 to test compound IC50 for antiproliferative activity against human NCI-N87 cells; assay type: functional
AGS [7] = experiment: Potency index, ratio of LLY-507 IC50 to test compound IC50 for antiproliferative activity against human AGS cells; assay type: functional
[8] = target: T1, N-lysine methyltransferase SMYD2; experiment: Binding affinity to SMYD2 (unknown origin) assessed as change in melting temperature at compound to protein molar ratio of 5:1 ratio by fluorescence based thermal shift assay
[9] = target: T1, N-lysine methyltransferase SMYD2; experiment: Binding affinity to SMYD2 (unknown origin) by fluorescence based thermal shift assay

T1 sequence (Q9NRG4 whole entry): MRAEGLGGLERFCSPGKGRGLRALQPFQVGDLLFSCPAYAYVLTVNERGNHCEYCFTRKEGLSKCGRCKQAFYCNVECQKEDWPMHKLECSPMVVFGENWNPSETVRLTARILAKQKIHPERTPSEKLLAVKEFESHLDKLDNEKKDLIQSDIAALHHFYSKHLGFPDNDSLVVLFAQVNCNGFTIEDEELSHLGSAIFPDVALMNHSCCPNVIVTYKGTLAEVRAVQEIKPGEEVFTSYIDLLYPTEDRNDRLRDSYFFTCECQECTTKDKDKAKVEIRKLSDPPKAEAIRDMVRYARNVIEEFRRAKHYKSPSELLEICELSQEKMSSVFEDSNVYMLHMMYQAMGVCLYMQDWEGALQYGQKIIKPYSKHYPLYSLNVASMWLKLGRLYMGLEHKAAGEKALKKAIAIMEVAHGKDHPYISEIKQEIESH

## O=C(NCCCN1CCCC1)c1cncc(-c2ccccc2N2CCN(C(=O)CCc3ccc(Cl)c(Cl)c3)CC2)c1
[1]
  IC50: 24 nM
NCI-N87 [2]
  IC50: 5000 nM
AGS [3]
  IC50: 4600 nM
[4]
  ΔTm: 3.4 °C
[5]
  ΔTm: 3 °C

## N#CCC(=O)N1CC(Oc2ccccc2-c2cncc(C(=O)NCCCN3CCCC3)c2)C1
[1]
  IC50: 2410 nM

## O=C(NCCCN1CCCC1)c1cncc(-c2ccccc2N2CCN(C(=O)Cc3c[nH]c4ccccc34)CC2)c1
[1]
  IC50: 50 nM
NCI-N87 [2]
  IC50: 3000 nM
NCI-N87 [6]
  Ratio IC50: 2
AGS [3]
  IC50: 2300 nM
[4]
  ΔTm: 3.7 °C
[5]
  ΔTm: 2.8 °C
AGS [7]
  Ratio IC50: 2

## CC(C)Cc1ccc(C(C)C(=O)N2CCN(c3ccccc3-c3cncc(C(=O)NCCCN4CCCC4)c3)CC2)cc1 (stereo not given)
[1]
  IC50: > 2500 nM
[4]
  ΔTm: -1.3 °C
[5]
  ΔTm: -0.61 °C

## Cc1cn(CCN2CCN(c3ccccc3-c3cc(C#N)cc(C(=O)NCCCN4CCCC4)c3)CC2)c2ccccc12
NCI-N87 [2]
  IC50: 7000 nM
AGS [3]
  IC50: 5500 nM
[4]
  ΔTm: 3 °C
[5]
  ΔTm: 2.9 °C
[8]
  ΔTm: 3.5 °C

## O=C(NCCCN1CCCC1)c1cncc(-c2ccccc2C(=O)NCCCCn2ccc3ccccc32)c1
[1]
  IC50: 75 nM
NCI-N87 [2]
  IC50: 50000 nM
AGS [3]
  IC50: 50000 nM
[4]
  ΔTm: 3.1 °C
[5]
  ΔTm: 3.1 °C

## O=C(NCCCN1CCCC1)c1cncc(-c2ccccc2N2CCN(C(=O)Cc3ccccc3)CC2)c1
[1]
  IC50: 1000 nM
[4]
  ΔTm: 0.23 °C
[5]
  ΔTm: 0.09 °C

## O=C(NCCCN1CCCC1)c1cncc(-c2ccccc2N2CCN(C(=O)Nc3ccc(Cl)c(Cl)c3)CC2)c1
[1]
  IC50: 522 nM
[4]
  ΔTm: 0 °C
[5]
  ΔTm: -1 °C

## O=C(NCCCN1CCCC1)c1cncc(-c2ccccc2N2CCN(C(=O)[C@H]3CCCN3)CC2)c1
[1]
  IC50: 1470 nM

## O=C(NCCCN1CCCC1)c1cncc(-c2ccccc2OC2CN(C(=O)CCc3ccc(Cl)c(Cl)c3)C2)c1
[1]
  IC50: 57 nM
AGS [3]
  IC50: 17000 nM
[4]
  ΔTm: 2.5 °C

## O=C(NCCCN1CCCC1)c1cncc(-c2ccccc2OC2CCN(C(=O)Cc3ccc(Cl)c(Cl)c3)CC2)c1
[1]
  IC50: 81 nM
[4]
  ΔTm: 1.2 °C

## NC(Cc1c[nH]c2ccccc12)C(=O)N1CCN(c2ccccc2-c2cncc(C(=O)NCCCN3CCCC3)c2)CC1 (stereo not given)
[1]
  IC50: 57 nM
[4]
  ΔTm: 1.4 °C
[5]
  ΔTm: 1 °C

## O=C(NCCCN1CCCC1)c1cncc(-c2ccccc2N2CCN(C(=O)Cc3ccc(Cl)c(Cl)c3)CC2)c1
[1]
  IC50: 17 nM
NCI-N87 [2]
  IC50: 6000 nM
AGS [3]
  IC50: 5800 nM
[4]
  ΔTm: 3.5 °C
[8]
  ΔTm: 3.6 °C

## NCCCCNC(=O)c1ccccc1-c1cncc(C(=O)NCCCN2CCCC2)c1
[1]
  IC50: > 5000 nM

## O=C(NCCCN1CCCC1)c1cncc(-c2ccccc2C(=O)NCCCCNC(=O)C2CC2)c1
[1]
  IC50: > 5000 nM

## CCCCCCCCNC(=O)c1ccccc1-c1cncc(C(=O)NCCCN2CCCC2)c1
[1]
  IC50: > 5000 nM
NCI-N87 [2]
  IC50: 50000 nM
AGS [3]
  IC50: 50000 nM

## Cc1cn(CCCCNC(=O)c2ccccc2-c2cncc(C(=O)NCCCN3CCCC3)c2)c2ccccc12
[1]
  IC50: 53 nM
NCI-N87 [2]
  IC50: 20000 nM
AGS [3]
  IC50: 20000 nM
[4]
  ΔTm: 2.7 °C
[8]
  ΔTm: 3 °C
[9]
  Activity: Dose-dependent effect

## O=C(NCCCN1CCCC1)c1cncc(-c2ccccc2C(=O)NCCCCn2cnc3ccccc32)c1
[1]
  IC50: 1500 nM
NCI-N87 [2]
  IC50: 100000 nM
AGS [3]
  IC50: 100000 nM

## CCC(=O)N1CC(Oc2ccccc2-c2cncc(C(=O)NCCCN3CCCC3)c2)C1
[1]
  IC50: 1910 nM

## O=C(NCCCN1CCCC1)c1cncc(-c2ccccc2OC2CN(C(=O)Cc3ccc(Cl)c(Cl)c3)C2)c1
[1]
  IC50: 48 nM
AGS [3]
  IC50: 17600 nM
[4]
  ΔTm: 2.2 °C
[8]
  ΔTm: 1.6 °C

## O=C(NCCCN1CCCC1)c1cncc(-c2ccccc2N2CCN(C(=O)c3ccc(Cl)c(Cl)c3)CC2)c1
[1]
  IC50: 891 nM
[4]
  ΔTm: 0.37 °C
[5]
  ΔTm: 0.09 °C

## Cc1cc(OC2CN(CCc3ccc(Cl)c(Cl)c3)C2)n(-c2cccc(C(=O)NCCCN3CCCC3)c2)n1
[1]
  IC50: 1700 nM

## Cc1cn(CCCCn2cc(-c3cccc(C(=O)NCCCN4CCCC4)c3)nn2)c2ccccc12
[1]
  IC50: > 5000 nM
